Data as given in patent publication US7790742B2, “Substituted 4-phenyltetrahydroisoquinolines, pharmaceutical compositions thereof, methods for their preparation and therapeutic use” (Sanofi-Aventis Deutschland GmbH, priority 2004, dated 2010).
One block for each compound: values may come before it.

Legend:
NHE3 of the rat = NHE3 of the rat (Rattus norvegicus, UniProt P26433); conditions: read-out: half-maximum inhibitory concentration (IC50); cited from earlier work
NHE3 [1] = molecular target: T1, NHE3 (Homo sapiens, UniProt P48764); conditions: indirect mechanism; cited from earlier work
T1 construct: host or cells: cells, not specified
T1 sequence (P48764 26-834): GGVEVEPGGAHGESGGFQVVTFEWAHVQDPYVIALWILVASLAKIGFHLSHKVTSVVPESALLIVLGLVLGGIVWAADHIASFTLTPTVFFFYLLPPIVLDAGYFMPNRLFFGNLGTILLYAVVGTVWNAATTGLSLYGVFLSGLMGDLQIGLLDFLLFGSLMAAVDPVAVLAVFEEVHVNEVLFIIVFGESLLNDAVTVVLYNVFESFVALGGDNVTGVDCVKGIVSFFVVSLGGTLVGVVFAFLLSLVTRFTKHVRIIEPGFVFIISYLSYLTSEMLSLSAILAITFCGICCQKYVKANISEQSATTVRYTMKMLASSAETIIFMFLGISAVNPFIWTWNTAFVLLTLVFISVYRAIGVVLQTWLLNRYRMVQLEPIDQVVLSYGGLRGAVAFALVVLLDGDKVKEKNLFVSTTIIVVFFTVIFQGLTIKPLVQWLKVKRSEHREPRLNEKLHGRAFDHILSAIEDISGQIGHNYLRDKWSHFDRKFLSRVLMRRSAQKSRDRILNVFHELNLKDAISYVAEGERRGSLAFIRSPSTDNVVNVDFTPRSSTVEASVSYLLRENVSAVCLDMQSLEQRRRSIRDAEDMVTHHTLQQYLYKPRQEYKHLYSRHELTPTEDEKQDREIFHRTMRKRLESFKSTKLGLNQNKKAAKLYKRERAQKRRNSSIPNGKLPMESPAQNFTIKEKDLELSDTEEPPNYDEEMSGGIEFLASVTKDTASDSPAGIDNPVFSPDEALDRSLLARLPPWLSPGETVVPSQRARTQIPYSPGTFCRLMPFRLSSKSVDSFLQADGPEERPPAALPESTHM

NHE1 = NHE1 (Homo sapiens, UniProt P19634); experiment: Tiamenidine inhibitory action on NHE subtypes: NHE1; type: cell-based; conditions: therapeutically utilizable concentration range
NHE1, sequence (P19634 whole entry, species assumed): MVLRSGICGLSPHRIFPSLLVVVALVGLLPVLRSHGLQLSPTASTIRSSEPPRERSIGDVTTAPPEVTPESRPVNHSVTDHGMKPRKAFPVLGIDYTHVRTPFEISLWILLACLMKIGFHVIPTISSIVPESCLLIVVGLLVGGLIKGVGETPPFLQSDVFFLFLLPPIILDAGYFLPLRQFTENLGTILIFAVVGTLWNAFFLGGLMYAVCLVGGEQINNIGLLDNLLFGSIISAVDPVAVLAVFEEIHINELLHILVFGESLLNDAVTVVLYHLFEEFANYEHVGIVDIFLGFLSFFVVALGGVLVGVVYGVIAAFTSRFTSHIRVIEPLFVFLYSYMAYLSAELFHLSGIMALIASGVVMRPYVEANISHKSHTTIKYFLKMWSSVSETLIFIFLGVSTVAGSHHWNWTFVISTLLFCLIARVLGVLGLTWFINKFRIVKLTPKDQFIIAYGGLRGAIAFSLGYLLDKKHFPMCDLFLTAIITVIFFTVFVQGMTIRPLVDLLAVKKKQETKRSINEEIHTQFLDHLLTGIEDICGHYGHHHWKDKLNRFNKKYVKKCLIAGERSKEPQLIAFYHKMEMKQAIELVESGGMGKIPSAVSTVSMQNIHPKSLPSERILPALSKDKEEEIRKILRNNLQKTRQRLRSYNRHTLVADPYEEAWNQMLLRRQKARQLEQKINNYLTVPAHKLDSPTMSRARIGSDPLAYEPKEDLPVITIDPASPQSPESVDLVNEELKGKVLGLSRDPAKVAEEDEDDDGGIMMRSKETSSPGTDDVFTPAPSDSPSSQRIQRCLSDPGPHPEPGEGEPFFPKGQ
Description: (§1) Compounds which are similar to clonidine but have a thiophene instead of the phenyl ring are disclosed in DE1941761. The structures of formula I disclosed and claimed herein differ from existing compounds by the fusing of a thieno-substituent to the imidazole moiety of the formula I or II. This distinction allows the above-described clonidine-like undesired cardiovascular effects mediated by alpha-adrenoreceptor action to be eliminated. […] The application WO03053434 proposes NHE3 inhibitors of the imidazoline type, the patent application WO 03101984 of the thiophene type and the application DE10304374 of the imidazole type.

NHE2 = molecular target: T2, NHE2 (Homo sapiens, UniProt Q9UBY0); experiment: Tiamenidine inhibitory action on NHE subtypes: NHE2; type: cell-based; conditions: therapeutically utilizable concentration range
T2 sequence (Q9UBY0 1-812): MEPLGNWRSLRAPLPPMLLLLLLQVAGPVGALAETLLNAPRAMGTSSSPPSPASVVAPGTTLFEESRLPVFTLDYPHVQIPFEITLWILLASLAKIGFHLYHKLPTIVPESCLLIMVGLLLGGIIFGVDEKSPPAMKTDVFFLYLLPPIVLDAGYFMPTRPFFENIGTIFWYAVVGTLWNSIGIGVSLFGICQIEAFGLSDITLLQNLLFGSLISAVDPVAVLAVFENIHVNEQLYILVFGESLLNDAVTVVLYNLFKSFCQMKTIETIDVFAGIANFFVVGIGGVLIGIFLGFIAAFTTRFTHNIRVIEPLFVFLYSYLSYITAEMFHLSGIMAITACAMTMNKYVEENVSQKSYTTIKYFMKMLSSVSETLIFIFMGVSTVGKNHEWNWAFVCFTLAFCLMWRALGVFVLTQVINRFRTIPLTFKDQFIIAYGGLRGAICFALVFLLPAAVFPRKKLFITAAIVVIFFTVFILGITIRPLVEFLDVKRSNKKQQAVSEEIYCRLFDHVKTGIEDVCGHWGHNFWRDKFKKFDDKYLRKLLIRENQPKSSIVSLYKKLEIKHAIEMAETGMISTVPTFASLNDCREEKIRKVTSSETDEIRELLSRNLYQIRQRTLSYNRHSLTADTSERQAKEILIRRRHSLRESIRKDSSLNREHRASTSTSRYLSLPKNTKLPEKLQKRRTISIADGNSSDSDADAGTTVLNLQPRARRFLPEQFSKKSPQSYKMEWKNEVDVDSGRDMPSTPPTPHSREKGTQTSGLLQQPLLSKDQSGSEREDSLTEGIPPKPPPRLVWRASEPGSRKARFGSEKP
Description: as §1

NHE3 [2] = molecular target: T1, NHE3; experiment: Tiamenidine inhibitory action on NHE subtypes: NHE3; type: cell-based; conditions: therapeutically utilizable concentration range
Description: as §1

NHE5 = molecular target: T3, NHE5 (Homo sapiens, UniProt Q14940); experiment: Tiamenidine inhibitory action on NHE subtypes: NHE5; type: cell-based; conditions: therapeutically utilizable concentration range
T3 sequence (Q14940 1-896): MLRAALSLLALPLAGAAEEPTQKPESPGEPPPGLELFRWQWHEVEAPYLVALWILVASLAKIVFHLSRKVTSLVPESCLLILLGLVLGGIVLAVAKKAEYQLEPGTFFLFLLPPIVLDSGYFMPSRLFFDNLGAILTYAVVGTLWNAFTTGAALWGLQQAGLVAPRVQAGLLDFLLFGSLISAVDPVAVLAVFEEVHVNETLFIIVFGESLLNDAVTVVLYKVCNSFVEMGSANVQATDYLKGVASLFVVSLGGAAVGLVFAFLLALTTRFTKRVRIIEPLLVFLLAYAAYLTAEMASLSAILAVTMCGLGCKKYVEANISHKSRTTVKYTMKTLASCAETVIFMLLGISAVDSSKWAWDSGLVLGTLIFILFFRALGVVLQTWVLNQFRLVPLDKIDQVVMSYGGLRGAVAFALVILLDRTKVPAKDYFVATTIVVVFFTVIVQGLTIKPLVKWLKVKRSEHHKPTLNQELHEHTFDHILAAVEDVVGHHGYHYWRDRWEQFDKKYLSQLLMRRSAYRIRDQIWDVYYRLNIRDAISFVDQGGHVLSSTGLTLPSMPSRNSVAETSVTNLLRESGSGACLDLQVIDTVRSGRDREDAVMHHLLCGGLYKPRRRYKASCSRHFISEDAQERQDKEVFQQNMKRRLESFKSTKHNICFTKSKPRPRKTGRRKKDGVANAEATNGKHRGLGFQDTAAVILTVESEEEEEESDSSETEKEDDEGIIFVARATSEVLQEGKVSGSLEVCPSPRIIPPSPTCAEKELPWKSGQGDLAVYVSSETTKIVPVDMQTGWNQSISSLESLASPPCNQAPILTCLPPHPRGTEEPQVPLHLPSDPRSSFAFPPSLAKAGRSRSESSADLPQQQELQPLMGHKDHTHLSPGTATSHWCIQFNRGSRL
Description: as §1

NHE3 of the rat, sequence (P26433 29-831): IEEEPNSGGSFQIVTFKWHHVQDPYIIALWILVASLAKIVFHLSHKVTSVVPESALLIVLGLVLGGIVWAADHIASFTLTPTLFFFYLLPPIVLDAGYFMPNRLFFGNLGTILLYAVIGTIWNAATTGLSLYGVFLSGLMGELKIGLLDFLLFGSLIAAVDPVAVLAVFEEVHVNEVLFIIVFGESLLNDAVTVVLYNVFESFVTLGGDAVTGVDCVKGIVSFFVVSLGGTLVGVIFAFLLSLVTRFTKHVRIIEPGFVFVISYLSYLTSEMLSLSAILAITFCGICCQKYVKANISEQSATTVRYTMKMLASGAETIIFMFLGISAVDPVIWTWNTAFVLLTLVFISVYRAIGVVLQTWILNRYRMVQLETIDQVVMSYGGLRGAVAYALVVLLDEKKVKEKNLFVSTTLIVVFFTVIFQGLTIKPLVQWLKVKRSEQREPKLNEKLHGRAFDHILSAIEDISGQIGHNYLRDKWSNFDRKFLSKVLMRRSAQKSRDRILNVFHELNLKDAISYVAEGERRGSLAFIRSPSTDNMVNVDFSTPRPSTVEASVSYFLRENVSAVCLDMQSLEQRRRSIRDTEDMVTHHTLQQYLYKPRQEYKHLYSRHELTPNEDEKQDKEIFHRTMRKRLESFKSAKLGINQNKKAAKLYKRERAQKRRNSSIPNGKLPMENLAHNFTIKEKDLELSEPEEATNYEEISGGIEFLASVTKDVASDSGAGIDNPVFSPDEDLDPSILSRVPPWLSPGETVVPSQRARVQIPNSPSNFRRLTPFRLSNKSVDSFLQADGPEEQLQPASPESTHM

SMILES: Clc1cccc(Cl)c1N=C1NCCN1 [Clonidine]
IC50 (NHE3 of the rat): 620 µM

SMILES: CC(C)[C@@H](CC[C@@H](C)[C@H]1CC[C@H]2[C@@H]3[C@H](O)C[C@H]4C[C@@H](NCCCNCCCCN)CC[C@]4(C)[C@H]3CC[C@]12C)OS(=O)(=O)O [squalamine]
time to maximum strength of action (NHE3 [1]): after one hour

inhibitory action on NHE1 (NHE1): no relevant inhibitory actions | inhibitory action on NHE2 (NHE2): no relevant inhibitory actions | inhibitory action on NHE3 (NHE3 [2]): no relevant inhibitory actions | inhibitory action on NHE5 (NHE5): no relevant inhibitory actions
SMILES: Cc1csc(Cl)c1NC1=NCCN1 [tiamenidine]
